As a reminder, the IC50 is the concentration that gives 50% inhibition. A lower IC50 goes with greater potency.

This note sets out measurements from BindingDB's records for doi:10.1111/cbdd.12793 (Nanjing University, 2016).

Sequence of Tyrosine--tRNA ligase (Q6G8J9 whole entry): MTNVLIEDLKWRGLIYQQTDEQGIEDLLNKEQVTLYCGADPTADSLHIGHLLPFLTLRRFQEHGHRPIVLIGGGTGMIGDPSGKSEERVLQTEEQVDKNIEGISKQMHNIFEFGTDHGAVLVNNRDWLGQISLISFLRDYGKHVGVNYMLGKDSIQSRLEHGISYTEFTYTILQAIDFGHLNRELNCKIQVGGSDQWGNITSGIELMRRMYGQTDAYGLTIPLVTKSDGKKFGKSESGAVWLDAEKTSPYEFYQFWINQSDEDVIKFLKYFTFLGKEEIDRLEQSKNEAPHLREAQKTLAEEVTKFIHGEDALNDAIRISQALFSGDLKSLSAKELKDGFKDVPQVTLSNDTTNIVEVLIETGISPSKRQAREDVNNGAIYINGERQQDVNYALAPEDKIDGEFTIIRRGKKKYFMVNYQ

This assay addresses Tyrosine--tRNA ligase (Staphylococcus aureus (strain MSSA476), UniProt Q6G8J9). The assay can be described thus: In vitro Enzyme Inhibition Assay. The settings on record: pH 7.9. Here is the method: The assays were conducted at 37 °C in a mixture containing 100 mM Tris/Cl pH 7.9, 50 mM KCl, 16 mM MgCl2, 5 mM ATP, 3 mM DTT, 4 mg/ml E. coli MRE600 tRNA (Roche) and 10 μM L-tyrosine (0.3 μM L-[ring-3,5-3H] tyrosine (PerkinElmer, Specific activity: 1.48-2.22 TBq/mmol), 10 μM carrier). Above all, TyrRS (0.2 nM) was pre-incubated with kinds of concentrations inhibitor for 10 min (RT) followed by the addition of pre-warmed mixture and moved them together to 37 °C. After specific intervals, the reaction was ended by the addition of aliquots of the reaction mix into gelid 7% trichloroacetic acid and harvested onto […] hydrophilic Durapore filters (Millipore Multiscreen 96-well plates) and counted by liquid scintillation.
`Cc1ccc(-n2nc(C(=O)OCCn3c([N+](=O)[O-])cnc3C)cc2-c2ccc(F)cc2)cc1` [2-(2-Methyl-5-nitro-1H-imidazol-1-yl)-ethyl-5-(4-fluorophenyl)-1-(p-tolyl)-1H-pyrazole-3-carboxylate (4c)] registered an IC50 of 56 µM. That is a double-digit micromolar value.

Take `Cc1ncc([N+](=O)[O-])n1CCOC(=O)c1cc(-c2ccccc2F)n(-c2ccccc2)n1` [2-(2-Methyl-5-nitro-1H-imidazol-1-yl)-ethyl-5-(2-fluorophenyl)-1-phenyl-1H-pyrazole-3-carboxylate (4t)]: the IC50 worked out at 95.4 µM.

On to `Cc1ccc(-c2cc(C(=O)OCCn3c([N+](=O)[O-])cnc3C)nn2-c2ccc(C)cc2)cc1` [2-(2-Methyl-5-nitro-1H-imidazol-1-yl)-ethyl-1,5-di-p-tolyl-1H-pyrazole-3-carboxylate (4b)], for which inhibition was half-maximal at 31.9 µM (IC50). Compared with the last molecule, the IC50 is about 3-fold lower.

Take `Cc1ccc(-c2cc(C(=O)OCCn3c([N+](=O)[O-])cnc3C)nn2-c2ccccc2)cc1` [2-(2-Methyl-5-nitro-1H-imidazol-1-yl)-ethyl-1-phenyl-5-(p-tolyl)-1H-pyrazole-3-carboxylate (4g)]: the IC50 was found to be 60.8 µM.

With `Cc1ncc([N+](=O)[O-])n1CCOC(=O)c1cc(-c2cccc(F)c2)n(-c2ccc(Cl)cc2)n1` [2-(2-Methyl-5-nitro-1H-imidazol-1-yl)-ethyl-1-(4-chlorophenyl)-5-(3-fluorophenyl)-1H-pyrazole-3-carboxylate (4y)], inhibition was half-maximal at 60.1 µM (IC50).

For `Cc1ccccc1-c1cc(C(=O)OCCn2c([N+](=O)[O-])cnc2C)nn1-c1ccccc1` [2-(2-Methyl-5-nitro-1H-imidazol-1-yl)-ethyl-1-phenyl-5-(o-tolyl)-1H-pyrazole-3-carboxylate (4p)], the IC50 was found to be 4.55 µM. This IC50 lies about 13-fold lower than the previous one.

`Cc1ncc([N+](=O)[O-])n1CCOC(=O)c1cc(-c2ccccc2F)n(-c2ccc(Cl)cc2)n1` [2-(2-Methyl-5-nitro-1H-imidazol-1-yl)-ethyl-1-(4-chlorophenyl)-5-(2-fluorophenyl)-1H-pyrazole-3-carboxylate (4u)] came in with an IC50 of 76.2 µM.

In the case of `Cc1ncc([N+](=O)[O-])n1CCOC(=O)c1cc(-c2ccccc2)n(-c2ccccc2)n1` [2-(2-Methyl-5-nitro-1H-imidazol-1-yl)-ethyl-1,5-diphenyl-1H-pyrazole-3-carboxylate (4r)], half-maximal inhibition (IC50) required 63.1 µM.

`Cc1ncc([N+](=O)[O-])n1CCOC(=O)c1cc(-c2ccc(F)cc2)n(-c2ccc(Cl)cc2)n1` [2-(2-Methyl-5-nitro-1H-imidazol-1-yl)-ethyl-1-(4-chlorophenyl)-5-(4-fluorophenyl)-1H-pyrazole-3-carboxylate (4m)] registered an IC50 of 64.4 µM.

`Cc1ccc(-c2cc(C(=O)OCCn3c([N+](=O)[O-])cnc3C)nn2-c2ccc(Cl)cc2)cc1` [2-(2-Methyl-5-nitro-1H-imidazol-1-yl)-ethyl-1-(4-chlorophenyl)-5-(p-tolyl)-1H-pyrazole-3-carboxylate (4l)] registered an IC50 of 18.1 µM.

Molecule `Cc1cccc(-c2cc(C(=O)OCCn3c([N+](=O)[O-])cnc3C)nn2-c2ccccc2)c1` [2-(2-Methyl-5-nitro-1H-imidazol-1-yl)-ethyl-1-phenyl-5-(m-tolyl)-1H-pyrazole-3-carboxylate (4v)] registered an IC50 of 21.6 µM.

Turning to `Cc1ccc(-n2nc(C(=O)OCCn3c([N+](=O)[O-])cnc3C)cc2-c2ccc(Cl)cc2)cc1` [2-(2-Methyl-5-nitro-1H-imidazol-1-yl)-ethyl-5-(4-chlorophenyl)-1-(p-tolyl)-1H-pyrazole-3-carboxylate (4d)], 47.8 µM corresponded to half-maximal inhibition (IC50).

Consider `Cc1ccccc1-c1cc(C(=O)OCCn2c([N+](=O)[O-])cnc2C)nn1-c1ccc(Cl)cc1` [2-(2-Methyl-5-nitro-1H-imidazol-1-yl)-ethyl-1-(4-chlorophenyl)-5-(o-tolyl)-1H-pyrazole-3-carboxylate (4q)], for which the IC50 was found to be 5.11 µM. Against the preceding molecule, the IC50 is about 9.4-fold lower.

`Cc1ncc([N+](=O)[O-])n1CCOC(=O)c1cc(-c2ccc(Cl)cc2)n(-c2ccc(Cl)cc2)n1` [2-(2-Methyl-5-nitro-1H-imidazol-1-yl)-ethyl-1,5-bis(4-chlorophenyl)-1H-pyrazole-3-carboxylate (4n)] had an IC50 of 53.1 µM.

As to `COc1ccc(-c2cc(C(=O)OCCn3c([N+](=O)[O-])cnc3C)nn2-c2ccc(Cl)cc2)cc1` [2-(2-Methyl-5-nitro-1H-imidazol-1-yl)-ethyl-1-(4-chlorophenyl)-5-(4-methoxyphenyl)-1H-pyrazole-3-carboxylate (4k)], the IC50 came to 1.67 µM.

The molecule `Cc1ncc([N+](=O)[O-])n1CCOC(=O)c1cc(-c2ccc(I)cc2)n(-c2ccc(Cl)cc2)n1` [2-(2-Methyl-5-nitro-1H-imidazol-1-yl)-ethyl-1-(4-chlorophenyl)-5-(4-iodophenyl)-1H-pyrazole-3-carboxylate (4o)] had an IC50 of 13.3 µM. This IC50 lies about 8-fold higher than the previous one.

For `Cc1ncc([N+](=O)[O-])n1CCOC(=O)c1cc(-c2cccc(F)c2)n(-c2ccccc2)n1` [2-(2-Methyl-5-nitro-1H-imidazol-1-yl)-ethyl-5-(3-fluorophenyl)-1-phenyl-1H-pyrazole-3-carboxylate (4x)], the IC50 is 84.1 µM.

`Cc1cccc(-c2cc(C(=O)OCCn3c([N+](=O)[O-])cnc3C)nn2-c2ccc(Cl)cc2)c1` [2-(2-Methyl-5-nitro-1H-imidazol-1-yl)-ethyl-1-(4-chlorophenyl)-5-(m-tolyl)-1H-pyrazole-3-carboxylate (4w)] returned an IC50 of 29.2 µM.

`Cc1ncc([N+](=O)[O-])n1CCOC(=O)c1cc(-c2ccc(Cl)cc2)n(-c2ccccc2)n1` [2-(2-Methyl-5-nitro-1H-imidazol-1-yl)-ethyl-5-(4-chlorophenyl)-1-phenyl-1H-pyrazole-3-carboxylate (4i)] had an IC50 of 21.2 µM.

Molecule `Cc1ncc([N+](=O)[O-])n1CCOC(=O)c1cc(-c2ccc(I)cc2)n(-c2ccccc2)n1` [2-(2-Methyl-5-nitro-1H-imidazol-1-yl)-ethyl-5-(4-iodophenyl)-1-phenyl-1H-pyrazole-3-carboxylate (4j)] displayed a concentration for half-maximal inhibition (IC50) of 36.7 µM.

In the case of `Cc1ncc([N+](=O)[O-])n1CCOC(=O)c1cc(-c2ccc(F)cc2)n(-c2ccccc2)n1` [2-(2-Methyl-5-nitro-1H-imidazol-1-yl)-ethyl-5-(4-fluorophenyl)-1-phenyl-1H-pyrazole-3-carboxylate (4h)], the IC50 was determined as 70 µM.

For the molecule `Cc1ccc(-n2nc(C(=O)OCCn3c([N+](=O)[O-])cnc3C)cc2-c2ccc(I)cc2)cc1` [2-(2-Methyl-5-nitro-1H-imidazol-1-yl)-ethyl-5-(4-iodophenyl)-1-(p-tolyl)-1H-pyrazole-3-carboxylate (4e)], the IC50 turned out to be 40.5 µM.

Consider `COc1ccc(-c2cc(C(=O)OCCn3c([N+](=O)[O-])cnc3C)nn2-c2ccc(C)cc2)cc1` [2-(2-Methyl-5-nitro-1H-imidazol-1-yl)-ethyl-5-(4-methoxyphenyl)-1-(p-tolyl)-1H-pyrazole-3-carboxylate (4a)], for which the IC50 was determined as 10.8 µM.

The molecule `COc1ccc(-c2cc(C(=O)OCCn3c([N+](=O)[O-])cnc3C)nn2-c2ccccc2)cc1` [2-(2-Methyl-5-nitro-1H-imidazol-1-yl)-ethyl-5-(4-methoxyphenyl)-1-phenyl-1H-pyrazole-3-carboxylate (4f)] showed an IC50 of 0.92 µM.

`Cc1ncc([N+](=O)[O-])n1CCOC(=O)c1cc(-c2ccccc2)n(-c2ccc(Cl)cc2)n1` [2-(2-Methyl-5-nitro-1H-imidazol-1-yl)-ethyl-1-(4-chlorophenyl)-5-phenyl-1H-pyrazole-3-carboxylate (4s)] displayed an IC50 of 16.5 µM. This IC50 is about 18-fold higher than that of the molecule before.
